Reference: ChEMBL document CHEMBL1201862, “PubChem BioAssay data set” (2004)
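48-hour exposure; five concentrations; linearly interpolated endpoints. GI50 marks 50% less growth.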 Calls of active or inactive are those of the source. No stated cut-off is given here; in the data, active = GI50 up to about 1.1 µM and inactive = higher.

What was measured:
Test in all cases: inhibition of tumour cell growth, NCI panel, 48 h
[1] = test system: LXFL 529
[2] = test system: RXF 631
[3] = test system: DMS-114
[4] = test system: DMS-273
[5] = test system: SNB-78
[6] = test system: HOP-18
[7] = test system: M19-MEL
[8] = test system: KM-20L2
[9] = test system: XF498

Compound	GI50 [1]	GI50 [2]	GI50 [3]	GI50 [4]	GI50 [5]	GI50 [6]	GI50 [7]	GI50 [8]	GI50 [9]
O=C(N/C(=C\c1ccc(/C=C(\NC(=O)c2ccccc2)c2nc3cc([N+](=O)[O-])ccc3[nH]2)cc1)c1nc2cc([N+](=O)[O-])ccc2[nH]1)c1ccccc1	28.4 µM (inactive)	34.5 µM (inactive)	18.8 µM (inactive)	51.6 µM (inactive)	> 100 µM (inactive)	> 100 µM (inactive)	52.4 µM (inactive)	37.8 µM (inactive)	–
c1ccc(P(=Nc2ccccc2N=P(c2ccccc2)(c2ccccc2)c2ccccc2)(c2ccccc2)c2ccccc2)cc1	0.337 µM (active)	1.34 µM (inactive)	0.405 µM (active)	0.309 µM (active)	0.489 µM (active)	0.172 µM (active)	0.818 µM (active)	1.38 µM (inactive)	0.208 µM (active)
CCc1cccc(C(C)C)c1N1C(=O)C(=O)C(c2nc3ccccc3s2)C(=O)C1=O	28.9 µM (inactive)	–	29.6 µM (inactive)	> 45.3 µM (inactive)	> 50 µM (inactive)	> 50 µM (inactive)	39.1 µM (inactive)	48.4 µM (inactive)	> 50 µM (inactive)
O=C1CCC2(c3ccccc3)Nc3ccc(Cl)cc3N12 (stereo not given)	> 100 µM (inactive)	> 100 µM (inactive)	63.5 µM (inactive)	–	> 100 µM (inactive)	–	> 100 µM (inactive)	> 100 µM (inactive)	> 100 µM (inactive)
CSc1nsc(-c2ccccc2)[s+]1.[O-][Cl+3]([O-])([O-])[O-]	–	> 100 µM (inactive)	–	> 100 µM (inactive)	> 100 µM (inactive)	> 100 µM (inactive)	> 100 µM (inactive)	> 100 µM (inactive)	–
O=C1CSC(/C(=C\c2ccc(Cl)cc2)c2nc3ccccc3[nH]2)=N1	20.8 µM (inactive)	–	–	21 µM (inactive)	41.3 µM (inactive)	–	15.2 µM (inactive)	31 µM (inactive)	1.36 µM (inactive)
c1ccc2c(c1)nnn1c3cnccc3nc21	31.8 µM (inactive)	–	20.2 µM (inactive)	15.9 µM (inactive)	25.5 µM (inactive)	53.5 µM (inactive)	65.9 µM (inactive)	53.1 µM (inactive)	–
Cc1cn2cc(-c3ccncc3)nc2s1	> 100 µM (inactive)	> 100 µM (inactive)	> 91.4 µM (inactive)	> 100 µM (inactive)	> 100 µM (inactive)	> 100 µM (inactive)	> 86.7 µM (inactive)	> 100 µM (inactive)	> 100 µM (inactive)
C=C(C)C(=O)OC1CCC2(C)C(CCC3C2CCC2(C)C(c4ccc(=O)oc4)CC4OC432)C1 (stereo not given)	–	–	2.43 µM (inactive)	3.31 µM (inactive)	5.47 µM (inactive)	13.3 µM (inactive)	3.91 µM (inactive)	6.92 µM (inactive)	5.15 µM (inactive)
O=C(N/C(=C\c1cc(Cl)ccc1Cl)c1nc2c(O)nc(S)nc2[nH]1)c1ccccc1	15.6 µM (inactive)	20.4 µM (inactive)	25.2 µM (inactive)	–	55.3 µM (inactive)	–	27 µM (inactive)	41.4 µM (inactive)	> 48.6 µM (inactive)
O=C(Nc1ccc(Sc2ccc(/N=N/c3c(O)c(S(=O)(=O)O)cc4cc(S(=O)(=O)O)ccc34)cc2)cc1)c1ccc(/N=N/c2c(O)c(S(=O)(=O)O)cc3cc(S(=O)(=O)O)ccc23)cc1	18.1 µM (inactive)	–	5.42 µM (inactive)	15.1 µM (inactive)	25.8 µM (inactive)	23 µM (inactive)	19.5 µM (inactive)	63.5 µM (inactive)	36.4 µM (inactive)
CCOc1ccc(NC(=O)C(=O)CC(=O)c2sc(NNC(C)=O)nc2C)cc1	> 100 µM (inactive)	> 100 µM (inactive)	–	> 100 µM (inactive)	> 100 µM (inactive)	–	> 100 µM (inactive)	> 100 µM (inactive)	> 100 µM (inactive)
O=C(Cc1nc2ccc([N+](=O)[O-])cc2nc1O)C(=O)Nc1ccccc1[N+](=O)[O-]	> 100 µM (inactive)	–	39.5 µM (inactive)	> 100 µM (inactive)	–	–	> 100 µM (inactive)	87.3 µM (inactive)	–
Cc1c(C(=O)/C=C/c2ccccc2[N+](=O)[O-])[n+]([O-])c2ccccc2[n+]1[O-]	4.89 µM (inactive)	4.34 µM (inactive)	5.55 µM (inactive)	3.61 µM (inactive)	12.3 µM (inactive)	15.4 µM (inactive)	5.97 µM (inactive)	5.61 µM (inactive)	–
CC1c2ccccc2Cn2cc3c(c21)C(=O)c1cccc(OP(=O)(O)OCc2ccccc2)c1C3=O (stereo not given)	> 100 µM (inactive)	> 100 µM (inactive)	> 100 µM (inactive)	–	–	–	–	> 100 µM (inactive)	34.3 µM (inactive)
C/C(=N/NC(N)=S)c1ccc2ccccc2c1	22.3 µM (inactive)	–	17.9 µM (inactive)	24.9 µM (inactive)	45.5 µM (inactive)	–	9.79 µM (inactive)	23.7 µM (inactive)	82.2 µM (inactive)
C=CCCCCCCCCC(=O)O [UNDECYLENIC ACID]	–	–	135 µM (inactive)	127 µM (inactive)	106 µM (inactive)	125 µM (inactive)	149 µM (inactive)	114 µM (inactive)	17.1 µM (inactive)
COc1ccc(-c2cc3[nH]nc(N)c3c(=O)o2)cc1	> 100 µM (inactive)	–	72.4 µM (inactive)	> 100 µM (inactive)	> 100 µM (inactive)	> 100 µM (inactive)	–	> 100 µM (inactive)	> 100 µM (inactive)
Cc1ccc(NC(=O)CSc2nnc(Cc3ccccc3)o2)c(C)c1	> 100 µM (inactive)	–	> 100 µM (inactive)	> 100 µM (inactive)	> 100 µM (inactive)	> 100 µM (inactive)	> 100 µM (inactive)	> 100 µM (inactive)	> 100 µM (inactive)
Cc1cc(Cl)ccc1NC(=O)CC1SC(NC(=O)c2ccccc2Cl)=NC1=O (stereo not given)	18 µM (inactive)	–	20.4 µM (inactive)	18.9 µM (inactive)	21.6 µM (inactive)	–	19.2 µM (inactive)	28.6 µM (inactive)	14.8 µM (inactive)
COc1cccc(NC(=O)/C(CC(=O)CC(c2ccccc2)c2c(O)c3ccccc3oc2=O)=N\NC(C)(C)C)c1OC (stereo not given)	41.3 µM (inactive)	–	22.8 µM (inactive)	–	> 100 µM (inactive)	–	> 100 µM (inactive)	51.4 µM (inactive)	–
COC(=O)CC1(O)C(=O)OCc2c1cc1n(c2=O)Cc2c-1nc1ccccc1c2OC (stereo not given)	23.2 µM (inactive)	1.63 µM (inactive)	0.164 µM (active)	0.042 µM (active)	26 µM (inactive)	0.522 µM (active)	1.19 µM (inactive)	1.95 µM (inactive)	13.3 µM (inactive)
Oc1ccc(C2Oc3cc(O)cc4c3C2c2cc(O)cc3c2C(c2cc(O)cc5c2C4C(c2ccc(O)cc2)O5)C(c2ccc(O)cc2)O3)cc1 (stereo not given)	5.41 µM (inactive)	–	7.11 µM (inactive)	8.07 µM (inactive)	–	–	10.4 µM (inactive)	13.2 µM (inactive)	5.51 µM (inactive)
Cc1ccc(NCCO)cc1	> 100 µM (inactive)	–	61.7 µM (inactive)	–	> 100 µM (inactive)	–	–	> 100 µM (inactive)	> 100 µM (inactive)
CC(C)(CN1CCOCC1)C(=O)/C=C/c1ccc(/C=C/C(=O)C(C)(C)CN2CCOCC2)cc1	1.1 µM (active)	1.36 µM (inactive)	0.757 µM (active)	0.457 µM (active)	1.21 µM (inactive)	–	–	1.36 µM (inactive)	1.42 µM (inactive)
